Bridge positions count the residues as written; N and C are the ends. Ends that are not written are not given here. Peptide text beside a SMILES is read from it. * marks the point of attachment. Biotin = O=C1N[C@H]2[C@H](CS[C@H]2CCCCC(=O)*)N1
Assays:
trypsin in human serum = assay: stability towards proteolysis by trypsin in human serum; type: in vitro ADME
Experimental: (§1) The effects of trypsin present in human serum on Polymyxin "B" and the peptides of invention was determined by combining 10 μl of human serum with 20 μg of the given peptide in 10 μl volume and holding the mixture at a temperature of 37° C. for different intervals of time. At various times, an aliquot of the mixture was processed by HPLC analysis in order to detect the residual amount of the investigated peptide. In Table VI the half-lives time of each peptide investigated are shown as compared to the half-life time of Polymyxin "B".

trypsin = assay: as above; type: in vitro ADME; conditions: human serum, 37° C., 180 mins; read-out: AMOUNT RECOVERED % after 180 mins
Experimental: as §1

Avidin = Avidin (Gallus gallus, UniProt P02701); conditions: cited from earlier work
Avidin, sequence (P02701 25-152, species assumed): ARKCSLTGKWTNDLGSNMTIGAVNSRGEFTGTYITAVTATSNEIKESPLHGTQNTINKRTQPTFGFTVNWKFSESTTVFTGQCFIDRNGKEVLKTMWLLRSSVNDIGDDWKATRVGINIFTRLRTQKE

[1] = prevention of endotoxin-induced death in CD1 mice sensitized with Actinomycin D; type: in vivo, mice (Strain CD1); conditions: 0.1 mg/mouse i.v., 1 μg endotoxin i.p.; for Mice surviving: 20 mice per group
Experimental: Prevention of endotoxin-induced death in mice, has been achieved by intravenous injection of the peptides of the invention. For this experiment, a strain of mice highly sensitive to the lethal activity of bacterial endotoxin has been used. Mice sensitized with Actinomycin D (Strain CD1) show a high sensitivity to extremely low doses of endotoxin. A dose as low as 1 μg of endotoxin per mouse (about 40 μg/kg of body weight) is able to completely kill a population of mice within 24-48 hours.
Groups of 20 mice CD1 have been treated intravenously with the peptides of the invention, with a single dose of 0.1 mg peptide, solubilized in sterile saline, per mouse. Thirty minutes later, mice were challenged by intraperitoneal injection of 1 μg of endotoxin purified from E. Coli strain 055-B5. Surviving mice were recorded every 24 hours during a seven days-period of observation. […] Negative controls received an intravenous injection of saline.
There were 20 mice per group. Mice surviving at each of the seven 24 hours observation periods are listed. The % survival appears in parenthesis. P expresses the level of statistical significance calculated by "t-Test" for each molecule compared to the treatment with saline, considering the total survival rate in each group.

CC[C@H](C)[C@H](NC(=O)CCCC[C@@H]1SC[C@@H]2NC(=O)N[C@@H]21)C(=O)N[C@@H](CCCCN)C(=O)N[C@H](C(=O)N[C@@H](CCCCN)C(=O)N[C@H]1CSSC[C@@H](C(=O)O)NC(=O)[C@H](CCCCN)NC(=O)[C@H](CCCCN)NC(=O)[C@H](CC(C)C)NC(=O)[C@H](Cc2ccccc2)NC(=O)[C@H](CCCCN)NC1=O)[C@@H](C)O [labeled Peptide VI] (Biotin-IKTKCKFLKKC-OH; disulfide 5-11)
Half-Life Time (t/2) (trypsin in human serum; human serum or human whole blood, not significantly different from the unlabeled value): ~1200 min

RYVRYVRYV [Peptide X]
remaining at 3 h, 1 mg/mL (trypsin): 0%
Half-Life Time (t/2) (trypsin in human serum; human serum, 37° C.): 35 min

CC[C@H](C)[C@H](N)C(=O)N[C@@H](CCCCN)C(=O)N[C@H](C(=O)N[C@@H](CCCCN)C(=O)N[C@H]1CSSC[C@@H](C(=O)O)NC(=O)[C@H](CCCCN)NC(=O)[C@H](CCCCN)NC(=O)[C@H](CC(C)C)NC(=O)[C@H](Cc2ccccc2)NC(=O)[C@H](CCCCN)NC1=O)[C@@H](C)O [Peptide VI] (H-IKTKCKFLKKC-OH; disulfide 5-11)
remaining at 3 h, 1 mg/mL (trypsin): 76%
Half-Life Time (t/2) (trypsin in human serum; human serum, 37° C.): 1,080 min

O=C(O)CCCC[C@@H]1SC[C@@H]2NC(=O)N[C@@H]21 [Biotin]
K of the reaction with Avidin (Avidin): 10^15

CC(C)C[C@@H]1NC(=O)[C@H](Cc2ccccc2)NC(=O)[C@H](CCCCN)NC(=O)[C@@H](N)CSSC[C@@H](C(=O)O)NC(=O)[C@H](CCCCN)NC(=O)[C@H](CCCCN)NC1=O [Peptide I] (H-CKFLKKC-OH; disulfide 1-7)
remaining at 3 h, 1 mg/mL (trypsin): 70%
Half-Life Time (t/2) (trypsin in human serum; human serum, 37° C.): > 180 min

CC(C)C[C@@H]1NC(=O)[C@H](Cc2ccccc2)NC(=O)[C@H](CCCCN)NC(=O)[C@@H](NC(=O)[C@H](CCCCN)NC(=O)[C@@H](NC(=O)[C@@H](N)CCCCN)[C@@H](C)O)CSSC[C@@H](C(=O)O)NC(=O)[C@H](CCCCN)NC(=O)[C@H](CCCCN)NC1=O [Peptide II] (H-KTKCKFLKKC-OH; disulfide 4-10)
remaining at 3 h, 1 mg/mL (trypsin): 10%
Half-Life Time (t/2) (trypsin in human serum; human serum, 37° C.): 50 min

CC(C)C[C@@H]1NC(=O)[C@H](CCCCN)NC(=O)[C@H](CCCCN)NC(=O)[C@@H](N)CSSC[C@@H](C(=O)N[C@@H](CCCCN)C(=O)N[C@H](C(=O)O)[C@@H](C)O)NC(=O)[C@H](CCCCN)NC(=O)[C@H](Cc2ccccc2)NC1=O [Peptide V] (H-CKKLFKCKT-OH; disulfide 1-7)
remaining at 3 h, 1 mg/mL (trypsin): 55%
Half-Life Time (t/2) (trypsin in human serum; human serum, 37° C.): 240 min

IKTKKFLKKT [Peptide VII]
remaining at 3 h, 1 mg/mL (trypsin): 28%
Half-Life Time (t/2) (trypsin in human serum; human serum, 37° C.): 50 min

KFLKFLK [Peptide IX]
remaining at 3 h, 1 mg/mL (trypsin): 0%
Half-Life Time (t/2) (trypsin in human serum; human serum, 37° C.): 10 min

IKFLKFLKFLK [Peptide VIII]
remaining at 3 h, 1 mg/mL (trypsin): 0%
Half-Life Time (t/2) (trypsin in human serum; human serum, 37° C.): 7 min

CC(C)C[C@@H]1NC(=O)[C@H](CCCCN)NC(=O)[C@H](CCCCN)NC(=O)[C@@H](N)CSSC[C@@H](C(=O)N[C@@H](CCCCN)C(=O)N[C@H](C(=O)N[C@@H](CCCCN)C(=O)O)[C@@H](C)O)NC(=O)[C@H](CCCCN)NC(=O)[C@H](Cc2ccccc2)NC1=O [Peptide IV] (H-CKKLFKCKTK-OH; disulfide 1-7)
remaining at 3 h, 1 mg/mL (trypsin): 0%
Half-Life Time (t/2) (trypsin in human serum; human serum, 37° C.): 18 min

CN(C)CCCN1c2ccccc2Sc2ccc(Cl)cc21 [CPZ, Chlorpromazine]
% survival ([1]; 24 hs): 50%
Mice surviving ([1]; 24 hs): 10
% survival ([1]; 48 hs): 50%
Mice surviving ([1]; 48 hs): 10
% survival ([1]; 72 hs): 50%
Mice surviving ([1]; 72 hs): 10
% survival ([1]; 96 hs): 50%
Mice surviving ([1]; 96 hs): 10
% survival ([1]; 120 hs): 50%
Mice surviving ([1]; 120 hs): 10
% survival ([1]; 144 hs): 50%
Mice surviving ([1]; 144 hs): 10
% survival ([1]; 168 hs): 50%
Mice surviving ([1]; 168 hs): 10

Source: patent US5371186A, “Synthetic peptides for detoxification of bacterial endotoxins and for the prevention and treatment of septic shock” (priority 1992, dated 1994)
